Earlier results, collected in patent US20090047259A1, “Methods of Using the Calcineurin A Variant CnA-beta 1” (priority 2005, published 2009).

Tested on: calcineurin
Details: mdx mice

In the case of `CC(=O)OCC(=O)[C@@]12N=C(C)O[C@@H]1C[C@H]1[C@@H]3CCC4=CC(=O)C=C[C@]4(C)[C@H]3[C@@H](O)C[C@@]12C` [deflazacort], the “NFAT-dependent genes, including utrophin” value is given as “induced”, the calcineurin activity is given as “activated calcineurin” and the myocyte viability is given as “restored myocyte viability”.
